Values of other authors as cited in patent US6365551B1, “Highly concentrated glyphosate herbicidal compositions” (Monsanto Technology LLC, priority 1990, dated 2002).

Settings: glyphosate in acid form

## O=C(O)CNCP(=O)(O)O [glyphosate, N-phosphonomethylglycine]
  water solubility: about 1.2%
